Experimental data taken from patent publication US8414660B2, “Haloferax volcanii laccase and variants and fragments thereof” (University of Florida Research Foundation, Inc., priority 2009, dated 2013).
“And” between values parts separate entries of the source, which are not always exact repeats. Equal values may be shown once. Read-outs that look alike come from different tables or passages of the source.

Legend:
[1] = target: T1, LccA isolated from Hfx. volcanii SB01 (Haloferax volcanii, UniProt D4GPK6); assay: biochemical; conditions: for Inhibition of observed LccA activity: 0.1 to 1 mM; for inhibition at 10000 µM: read-out: Inhibition / reduction in LccA activity
T1 construct: made in house; host or cells: Haloferax volcanii SB01 (H26 carrying plasmid pJAM822), secreted into culture broth
T1 sequence (D4GPK6 32-579): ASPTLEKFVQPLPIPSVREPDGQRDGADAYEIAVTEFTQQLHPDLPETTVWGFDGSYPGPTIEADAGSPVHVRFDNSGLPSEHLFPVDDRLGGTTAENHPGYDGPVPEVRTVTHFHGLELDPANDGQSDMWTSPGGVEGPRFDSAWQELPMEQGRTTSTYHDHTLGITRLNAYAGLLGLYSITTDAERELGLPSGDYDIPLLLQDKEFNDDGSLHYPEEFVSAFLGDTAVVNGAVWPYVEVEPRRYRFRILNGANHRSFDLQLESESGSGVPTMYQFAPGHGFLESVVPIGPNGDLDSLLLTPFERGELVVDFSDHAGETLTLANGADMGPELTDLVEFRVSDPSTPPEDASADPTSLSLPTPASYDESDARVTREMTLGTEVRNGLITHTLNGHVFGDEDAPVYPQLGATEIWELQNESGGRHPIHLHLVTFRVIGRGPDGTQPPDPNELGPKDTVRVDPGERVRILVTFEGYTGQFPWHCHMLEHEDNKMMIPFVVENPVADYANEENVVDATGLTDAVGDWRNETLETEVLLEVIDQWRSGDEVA

[2] = literature; cited from earlier work
[3] = Laccase activity assay, oxidation of SGZ (syringaldazine)
Procedure: LccA (51 μg·ml^−1) activity was assayed at different temperatures (22° to 70° C.) in T buffer with 185 mM NaCl using SGZ (1 mM) as the substrate. […] LccA activity was assayed with SGZ (●) from pH 6 to 11 and with ABTS (◯) from pH 3 to 8 at 45° C. using following buffers: 100 mM sodium acetate for pH 3 to 6, 25 mM Tris-HCl for pH 7 to 10, and 25 mM glycine-NaOH for pH 11. Activity is expressed as percent relative to oxidation of ABTS at pH 6. […] Purified enzyme (50.6 μg·ml^−1) was pre-incubated in T buffer supplemented with 185 mM NaCl at temperatures from 37° to 70° C. for up to 60 h, as indicated. […] Activity is presented as percent relative to incubation on ice (37° C. (●), 45° C. (▪), 50° C. (▴), 55° C. (♦), 60° C. (◯), 65° C. (□) and 70° C. (Δ)); FIG. 6E-Salt tolerance of LccA protein. Purified enzyme (16.5 μg·ml^−1) was pre-incubated for 30 min in T buffer at pH 8.4 supplemented with different concentrations of NaCl (0 to 1.4 M) as indicated. Samples were diluted to a final concentration 4.12 μg·ml^−1 protein and 185 mM NaCl in T buffer and assayed for SGZ oxidizing activity under standard conditions. Residual activity was calculated as percent relative to incubation at 185 mM NaCl. […] Enzyme (7.5 μg·ml^−1) was incubated in T buffer with 185 mM NaCl in the presence and absence of 25% (v/v) solvent (DMSO, DMF, ethanol and methanol) at room temperature for 90 min (white bar), 3 h (grey bar) and 24 h (black bar). […] Activity is calculated as percent relative to incubation without solvent.
Enzyme activity was determined by change in absorbance, in triplicate, by UV/Visible-spectroscopy using a BioTek Synergy HT multi-detection microplate reader with a 96-well plate. Oxidation of substrate was monitored by absorbance increase (ABTS at 420 nm with ε=36,000 M^−1 cm^−1; SGZ at 526 nm with ε=65,000 M^−1 cm^−1; DMP at 468 nm with ε=49,000 M^−1 cm^−1; guaiacol at 436 nm with ε=26,600 M^−1 cm^−1; ferrous ammonium sulfate at 315 nm with ε=2,200 M^−1 cm^−1) or decrease (bilirubin at 440 nm with ε=56,300 M^−1 cm^−1). Standard assay conditions were 185 mM NaCl at 45° C. with the following buffers and substrate concentrations: 100 mM sodium acetate buffer at pH 6.0 for ABTS (at 5 mM), DMP (at 2 mM) and guaiacol (at 5 mM); 25 mM Tris-HCl buffer at pH 8.4 for SGZ (at 1 mM); and 200 mM Tris-HCl buffer at pH 8.4 for bilirubin (0.45 mM). Copper sulfate (1 mM) was included for assay of DMP oxidation. Oxidation of ferrous ammonium sulphate (1 mM) was monitored at 315 nm (ε=2,200 M^−1 cm^−1) with and without salt (185 mM NaCl) in 100 mM MES (morpholineethanesulfonic acid) buffer at pH 5 as well as 25 mM Tris-HCl buffer at pH 7.0 and 8.4. One unit of enzyme activity is defined as the amount of enzyme that oxidizes 1 μmol of substrate per min at standard conditions. […] Kinetic parameters (Km, Vmax, and kcat) were determined using the Michaelis-Menten equation. […] All assays and protein purifications were performed at least in triplicate.
To further evaluate the catalytic properties of LccA, the temperature, pH and salt optima of the purified enzyme were determined using SGZ and/or ABTS as substrates.

[4] = comparator laccase-like enzymes, literature, cited from earlier work
[5] = comparator laccase-like enzymes, literature, cited from earlier work; remark: listed apart in the source
[6] = compound 0.1 mM, 10 min at 45° C.
[7] = compound 1 mM, 10 min at 45° C.
[8] = compound 10 mM, 10 min at 45° C.

Molecule: O[C@@H](CS)[C@@H](O)CS (racemic) [DL-Dithiothretol]
- Inhibition of observed LccA activity [1]: strong inhibitors
- Relative Activity of LccA ([1]; compound 0.01 mM, 10 min at 45° C.): 90.5 ± 5.5%
- Relative Activity of LccA [1, 6]: u.d.
- Relative Activity of LccA [1, 7]: u.d.

Molecule: c1cnc2c(c1)ccc1cccnc12 [1,10-Phenanthroline]
- inhibition at 10000 µM ([1]; 10 mM): 90%
- Relative Activity of LccA [1, 7]: 85.3 ± 3.4%
- Relative Activity of LccA [1, 8]: 10.9 ± 3.9%

Molecule: c1ccc(-c2ccccn2)nc1 [2,2-Dipyridyl]
- Inhibition / reduction in LccA activity ([1]; 10 mM): 25%
- Relative Activity of LccA [1, 7]: 86.6 ± 3.3%
- Relative Activity of LccA [1, 8]: 75.2 ± 2.3%

Molecule: O=C(O)CN(CCN(CC(=O)O)CC(=O)O)CC(=O)O [EDTA]
- Inhibitory activity toward LccA [1]: no inhibitory activity
- Relative Activity of LccA [1]: 100.6 ± 1.8% and 106.3 ± 5.8% and 123.6 ± 3.2% and 123.7 ± 3.0%

Molecule: N[C@@H](CS)C(=O)O [L-Cysteine]
- Inhibition of observed LccA activity [1]: strong inhibitors
- Relative Activity of LccA [1, 6]: 83.0 ± 3.7%
- Relative Activity of LccA [1, 7]: u.d.^c

Molecule: NC(N)=S [Thiourea]
- inhibition at 10000 µM ([1]; 10 mM): 90%
- Relative Activity of LccA [1, 7]: 96.5 ± 3.9%
- Relative Activity of LccA [1, 8]: 9.5 ± 1.3%

Molecule: McoA [reference compound]
- Temperature optimum [2]: 70 °C

B1: LccA-StrepII: LccA with a C-terminal StrepII tag (-WSHPQFEK), purified from Hfx. volcanii SB01 (protein, UniProt D4GPK6 32-579, looked up)
Laccase: T1 sequence (D4GPK6 32-579)
modifications: C-terminal StrepII tag
- Specific activity lower than US02 purified LccA ([3]; SGZ oxidation): over 20 fold
- Specific activity, SGZ oxidation ([3]; purified from culture broth of Hfx. volcanii SB01 (C-terminal StrepII tag), final MonoQ 10/10 pH 8.4): 1.3 U·mg^−1

B2: CotA, Bacillus subtilis: Bacillus subtilis spore coat protein A with laccase activity (Martins et al., 2002) (protein, UniProt P07788 1-513, looked up)
Laccase: MTLEKFVDALPIPDTLKPVQQSKEKTYYEVTMEECTHQLHRDLPPTRLWGYNGLFPGPTIEVKRNENVYVKWMNNLPSTHFLPIDHTIHHSDSQHEEPEVKTVVHLHGGVTPDDSDGYPEAWFSKDFEQTGPYFKREVYHYPNQQRGAILWYHDHAMALTRLNVYAGLVGAYIIHDPKEKRLKLPSDEYDVPLLITDRTINEDGSLFYPSAPENPSPSLPNPSIVPAFCGETILVNGKVWPYLEVEPRKYRFRVINASNTRTYNLSLDNGGDFIQIGSDGGLLPRSVKLNSFSLAPAERYDIIIDFTAYEGESIILANSAGCGGDVNPETDANIMQFRVTKPLAQKDESRKPKYLASYPSVQHERIQNIRTLKLAGTQDEYGRPVLLLNNKRWHDPVTETPKVGTTEIWSIINPTRGTHPIHLHLVSFRVLDRRPFDIARYQESGELSYTGPAVPPPPSEKGWKDTIQAHAGEVLRIAATFGPYSGRYVWHCHILEHEDYDMMRPMDITDPHK
- Temperature optimum [2]: 75 °C
- kcat, SGZ [4]: 3.7 s⁻¹
- Km ([4]; read-out: Km, SGZ): 26 µM
- kcat, ABTS [5]: 16.8 s⁻¹
- Km ([5]; read-out: Km, ABTS): 106 µM
